Measured values: US10391070B2, “Compositions and methods for treating neurological diseases or injury” (MUSC FOUNDATION FOR RESEARCH DEVELOPMENT, priority 2012, dated 2019)

Assays:
c-fos = c-fos gene expression in PTZ-treated zebrafish larvae; assay type: in vivo, zebrafish (Danio rerio); details: 7 dpf zebrafish; for reduction of c-fos gene expression compared to PTZ alone: concentrations of Table 9
Experimental: Ten 7 dpf larvae were placed in 500 μL tank water in wells of a 48-well cell-culture plate and appropriate concentrations of drugs were added as in the behavior study (Table 9). After a 1 h pre-incubation period, PTZ was added to a final concentration of 15 mM in appropriate wells and larvae were incubated for a further 45 min. Fish were quickly euthanized by incubating the plate in an ice-water bath for 15 min. Fish were removed from each well and all liquid removed before freezing at −80° C. RNA was extracted using Trizol (Invitrogen) followed by the RNeasy Mini kit (Qiagen). Frozen embryos were homogenized in 800 μL Trizol using in-tube pestles and a motorized homogenizer. Following a 5-min incubation at room temperature, 200 μL chloroform was added and the samples were centrifuged at 12,000 g for 10 min. The aqueous phase was transferred to a new tube and 250 μL 100% ethanol was added and the samples mixed. This mixture was then transferred to the Qiagen minicolumn assembly and the protocol followed as described with the kit. Samples were eluted in 30 μL RNase free water and concentration was determined using the Nanodrop instrument (Thermo Fisher). cDNA was prepared using the RETROscript kit (Ambion) with 500 ng total RNA. cDNA was then diluted 1:1 with sterile dH2O and 2.5 μL of this cDNA was used in the QPCR reaction with SsoAdvanced SYBR Green Supermix (BioRad) and c-fos primers designed to span an intron-exon junction (c-fos F: […], SEQ ID NO:9; c-fos R: […], SEQ ID NO:10) ([…] each) in the BioRad CFX96 RealTime instrument. L13a and EF1a gene expression were used for normalization (Rahn et al., 2013). The following cycle conditions were used: 95° C./3 min, 40 cycles of 95° C./15 s, 62° C./30 s, followed by 95° C. 30 s and a dissociation curve. Samples were run in duplicate. The 2^−ΔΔCt method was used to quantify gene expression, whereby all gene Ct values were first normalized to Ct values of the geometric mean of the Ct of L13a and EF1a (Livak and Schmittgen, 2001). Treated samples were then normalized to the tank water control and converted to fold change.

HT-22 neuronal cells = test: Respirometry (OCR, ECAR; Seahorse XF-96); assay type: cell-based, mouse; design: ECAR (glycolysis), difference from control: unit not given here; details: HT-22 cells, mean±SEM; for basal cellular respiration, difference in OCR from control: 1 h treatment, OCR as percentage of pre-treatment value; for basal mitochondrial respiration, difference from control: basal minus non-mitochondrial (rotenone); for ATP-linked respiration, difference from control: basal minus oligomycin
Experimental: Oxygen consumption rates (OCR) and extracellular acidification rates (ECAR) of HT-22 neuronal cells were performed on the XF-96 Extracellular Flux Analyzer (Seahorse Bioscience) using standard methods (Beeson et al., 2010). In brief, cells were cultured in 96 well Seahorse plates in DMEM high glucose media (Invitrogen) supplemented with 10% FBS, 10 mM HEPES, and 1% antibiotic-antimycotic (Invitrogen). The media was replaced with DMEM media supplemented with 25 mM glucose, 10 mM sodium pyruvate, 31 mM NaCl, and 2 mM glutamine at pH 7.4. Each of the four drug ports on the Seahorse sensor cartridge were filled with test compound (media only, 5 μM NQN-1, 10 μM VK3 or 12.5 μM MB), 10 μM oligomycin, 1 μM FCCP, and 5 μM rotenone, which were injected into each well at 20, 80, 110, and 135 min, respectively. The pmol/min OCR rate for each well (9-52 wells/group) was measured. Wells were excluded from the analysis if their OCR values surpassed the Tukey Outlier Rule. In order to standardize the OCR rates across wells, the average OCR value at 17 min (last time point prior to injection of the test compounds) for each experimental group was calculated, and set to 100. All OCR values are given as a percentage of this pre-treatment value. […]

NQO-1 = test: qRT-PCR of antioxidant response gene NQO-1; assay type: cell-based, mouse; details: HT22, 10 mM glutamate 16 hrs, relative to glutamate only
Experimental: HT22 cells were seeded onto cell culture treated 6-well plates at 3.0×10^5 cells per well in 2 mL of medium and maintained at 37° C. in 5% CO2 overnight prior to the initiation of experimental treatments. Cells were subsequently treated with 1 mL of medium containing glutamate (monosodium glutamate, Sigma-Aldritch, 1 M stock concentration in media, to achieve a final concentration of 10 mM) plus inhibitors (stock in DMSO) and maintained at 37° C. in 5% CO2. After 16 hrs, the media was collected and the cells harvested by trypsanization. After centrifugation, pelleted cells were washed with cold Hanks' Balanced Salt Solution (HBSS Ca^2+/Mg^2+ Free; Invitrogen; KCl 5.33 mM, KH2PO4 0.441 mM, NaHCO3 4.17 mM, NaCl 137.93 mM, Na2HPO4 0.338 mM, D-Glucose 5.56 mM), qRT-PCR was used to detect HO-1, NQO-1, and PGAM5 mRNAs in the HT22 cells. […] Therefore β2-microglobulin was used as a reference gene (Barrionuevo and Burggren, 1999). HT22 cells were cultured as described for 16 hrs. Total RNAs were extracted using the RNEasy kit (Qiagen), and transcripts of interest were amplified by PCR using the 1-step Syber Green qRT-PCR kit (Quanta) and the following specific primers (Harvard PrimerBank; Integrated DNA Technologies): HO-1, 5′-[…]-3′ (SEQ ID NO:1) and 5′-[…]-3′ (SEQ ID NO:2); PGAM5, 5′-[…]-3′ (SEQ ID NO:3) and 5′-[…]-3′ (SEQ ID NO:4); NQO-1, 5′-[…]-3′ (SEQ ID NO:5) and 5′-[…]-3′ (SEQ ID NO:6); and β2-microglobulin, 5′-[…]-3′ (SEQ ID NO:7) and 5′-[…]-3′ (SEQ ID NO:8). Linearity of the primers was verified before use, and fold changes were calculated as previously described using the Livak method (Barrionuevo and Burggren, 1999).

Row | Compound | reduction of c-fos gene expression compared to PTZ alone (c-fos) | basal cellular respiration, difference in OCR from control (HT-22 neuronal cells) | basal mitochondrial respiration, difference from control (HT-22 neuronal cells) | ATP-linked respiration, difference from control (HT-22 neuronal cells) | ECAR (glycolysis), difference from control (HT-22 neuronal cells) | NQO-1 gene expression (NQO-1) | fold reduction of c-fos gene expression compared to PTZ alone (c-fos; 6 μM pre-treatment)
1 | C#CCNC1=CC(=O)c2ccccc2C1=O [Compound 2h, 2-(prop-2-yn-1-ylamino)naphthalene-1,4-dione] | about half | – | – | – | – | – | –
2 | O=C1C=C(NCc2ccccc2)C(=O)c2ccccc21 [Compound 2j, 2-(benzylamino)naphthalene-1,4-dione] | about half | −4.14±2.9 | 9.09±3.13 | 6.58±3.28 | 5.03±1.11 | did not affect NQO-1 expression | –
3 | O=C1C=C(NCc2cccc(Cl)c2)C(=O)c2ccccc21 [Compound 2q, 2-((3-chlorobenzyl)amino)naphthalene-1,4-dione] | about half | – | – | – | – | did not affect NQO-1 expression | –
4 | CC1=CC(=O)c2ccccc2C1=O [VK3, menadione, reference compound] | – | 21.57±0.97 | elevated but failed to reach statistical significance | 12.2±3.12 | 1.89±0.93 | – | approximately 10 fold
5 | menaquinones [VK2, reference compound] | – | – | – | – | – | did not affect NQO-1 expression | –
